Reference: ChEMBL document CHEMBL1201862, “PubChem BioAssay data set” (2004)
Calls of active or inactive are those of the source.

Experiments:
[1] = M. tuberculosis H37Rv growth inhibitors, H37Rv strain (AID 1626); format: functional
Major prion protein = Major prion protein (Homo sapiens, UniProt P04156); format: functional, cell-based
cells [2] = assay: cells
[3] = molecular target: Voltage-dependent T-type calcium channel subunit alpha-1H (Homo sapiens, UniProt O95180); format: functional;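 further: channel activity triggered by adding a high calcium stimulation buffer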
Coagulation factor XII = molecular target: T1, Coagulation factor XII (Homo sapiens, UniProt P00748); format: functional;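 further: activated factor XIIa alpha cleaving a fluorogenic AMC peptide substrate; inhibitor potency from loss of enzyme activity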
T1 sequence (P00748 whole entry): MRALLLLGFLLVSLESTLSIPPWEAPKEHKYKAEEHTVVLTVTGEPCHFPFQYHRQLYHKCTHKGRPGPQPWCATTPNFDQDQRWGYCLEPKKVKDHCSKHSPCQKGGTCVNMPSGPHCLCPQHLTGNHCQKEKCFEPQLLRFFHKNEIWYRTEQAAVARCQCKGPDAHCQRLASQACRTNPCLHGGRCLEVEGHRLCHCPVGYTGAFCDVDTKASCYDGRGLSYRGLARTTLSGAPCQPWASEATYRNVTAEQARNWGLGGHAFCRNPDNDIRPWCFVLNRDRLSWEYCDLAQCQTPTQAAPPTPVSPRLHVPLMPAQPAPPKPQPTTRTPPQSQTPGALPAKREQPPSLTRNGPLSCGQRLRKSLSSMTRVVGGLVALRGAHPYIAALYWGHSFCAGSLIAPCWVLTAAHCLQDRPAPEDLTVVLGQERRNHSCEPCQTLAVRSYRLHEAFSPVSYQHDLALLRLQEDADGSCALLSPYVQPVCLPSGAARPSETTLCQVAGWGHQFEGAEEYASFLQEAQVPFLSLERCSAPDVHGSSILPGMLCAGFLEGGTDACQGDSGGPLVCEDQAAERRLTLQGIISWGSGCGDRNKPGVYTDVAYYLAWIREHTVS

cells [4] = format: functional, cell-based
[5] = molecular target: T2, Trace amine-associated receptor 1 (Homo sapiens, UniProt Q96RJ0); assay: Fluorescence-based cell-based high throughput dose response assay to identify agonists of the human trace amine associated receptor 1 (TAAR1).; format: functional
T2 sequence (Q96RJ0 whole entry): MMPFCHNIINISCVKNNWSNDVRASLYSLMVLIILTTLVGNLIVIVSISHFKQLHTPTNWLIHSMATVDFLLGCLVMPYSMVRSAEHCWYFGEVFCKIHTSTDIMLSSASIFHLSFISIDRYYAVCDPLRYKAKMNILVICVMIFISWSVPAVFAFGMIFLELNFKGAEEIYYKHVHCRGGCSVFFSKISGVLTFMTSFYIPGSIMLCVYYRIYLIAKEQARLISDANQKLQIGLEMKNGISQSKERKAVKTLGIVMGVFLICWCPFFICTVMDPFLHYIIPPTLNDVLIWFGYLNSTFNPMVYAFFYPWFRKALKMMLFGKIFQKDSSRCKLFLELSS

[6] = molecular target: T2, Trace amine-associated receptor 1; assay: Counterscreen for agonists of the human trace amine associated receptor 1 (hTAAR1): Fluorescence-based cell-based high throughput dose response assay to identify hTAAR1 agonist that also desensitize TAAR1 receptor response.; format: functional
cells [7] = format: functional, cell-based; remark: listed apart in the source
[8] = Trypanosoma cruzi growth suppression in host cells – NIH3T3 host cells, beta-gal luminescence, confirmation (AID 2044); format: functional, cell-based;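 further: intracellular parasites grown in NIH/3T3 mouse fibroblasts as host cells; luminescent beta-galactosidase reporter signal from transgenic T. cruzi replicating inside host cells; inhibitors lower the luminescence signal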
[9] = NIH3T3 cell viability loss – ATP luminescence, mouse fibroblasts, counter-screen, dose response (AID 2010); format: functional, cell-based;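 further: cells exposed to compound for about 90 hours before reading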
[10] = molecular target: T3, Mannose-6-phosphate isomerase (Homo sapiens, UniProt P34949); assay: MPI inhibition at elevated mannose 6-phosphate – biochemical, fluorescence intensity, high mannose 6-phosphate, primary screen (AID 1220)
T3 sequence (P34949 whole entry): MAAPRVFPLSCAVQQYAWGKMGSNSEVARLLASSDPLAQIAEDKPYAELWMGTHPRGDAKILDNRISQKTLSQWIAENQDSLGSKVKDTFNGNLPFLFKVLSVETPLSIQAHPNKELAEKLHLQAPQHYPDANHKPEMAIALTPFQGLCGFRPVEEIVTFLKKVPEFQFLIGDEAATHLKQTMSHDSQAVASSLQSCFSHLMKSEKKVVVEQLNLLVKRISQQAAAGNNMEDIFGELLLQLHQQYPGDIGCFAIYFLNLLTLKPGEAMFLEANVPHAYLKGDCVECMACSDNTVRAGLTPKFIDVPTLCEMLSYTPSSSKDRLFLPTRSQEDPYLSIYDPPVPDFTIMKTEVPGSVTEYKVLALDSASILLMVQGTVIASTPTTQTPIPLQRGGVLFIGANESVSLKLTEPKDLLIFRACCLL

Protein RecA = molecular target: T4, Protein RecA (Mycobacterium tuberculosis, UniProt P9WHJ3); assay: Fluorescence Cell-Free Homogeneous Dose Retest to Identify Inhibitors of RecA-Intein Splicing Activity. [Related pubchem assays (depositor defined):AID2097, AID2223, AID489010, AID492950]; format: functional
T4 sequence (P9WHJ3 whole entry): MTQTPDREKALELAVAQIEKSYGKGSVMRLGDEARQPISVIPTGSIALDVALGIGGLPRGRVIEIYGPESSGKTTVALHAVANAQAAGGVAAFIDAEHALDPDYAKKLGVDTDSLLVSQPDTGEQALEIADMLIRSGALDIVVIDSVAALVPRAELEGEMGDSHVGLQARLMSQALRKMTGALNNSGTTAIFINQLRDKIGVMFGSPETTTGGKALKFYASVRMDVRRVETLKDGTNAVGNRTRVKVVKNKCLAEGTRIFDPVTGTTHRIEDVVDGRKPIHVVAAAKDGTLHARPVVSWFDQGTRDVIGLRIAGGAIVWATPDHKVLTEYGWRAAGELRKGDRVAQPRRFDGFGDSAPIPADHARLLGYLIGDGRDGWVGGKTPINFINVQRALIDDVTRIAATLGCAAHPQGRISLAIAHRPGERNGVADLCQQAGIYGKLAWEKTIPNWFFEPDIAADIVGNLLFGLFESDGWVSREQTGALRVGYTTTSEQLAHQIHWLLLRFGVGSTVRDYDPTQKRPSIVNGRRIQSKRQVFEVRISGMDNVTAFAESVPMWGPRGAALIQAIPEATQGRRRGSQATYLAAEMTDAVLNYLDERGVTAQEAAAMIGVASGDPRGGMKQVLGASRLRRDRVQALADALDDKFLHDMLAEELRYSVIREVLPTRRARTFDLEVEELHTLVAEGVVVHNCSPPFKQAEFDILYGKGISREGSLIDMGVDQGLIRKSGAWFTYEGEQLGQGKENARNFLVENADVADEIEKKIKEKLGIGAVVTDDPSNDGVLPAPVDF

[11] = Luminescence-based cell-based high throughput dose response assay to identify activators of the DAF-12 from the parasite S. stercoralis (ssDAF-12).; format: functional
[12] = molecular target: T5, Oxysterols receptor LXR-beta (Homo sapiens, UniProt P55055); assay: LXR agonists, Gal4 luciferase reporter, dose response, counter-screen for ssDAF-12 agonist project, cell-based, luminescence, HEK293, S. stercoralis campaign (AID 720737); format: functional; details: read-out: IC50 (the source's name)
T5 sequence (P55055 whole entry): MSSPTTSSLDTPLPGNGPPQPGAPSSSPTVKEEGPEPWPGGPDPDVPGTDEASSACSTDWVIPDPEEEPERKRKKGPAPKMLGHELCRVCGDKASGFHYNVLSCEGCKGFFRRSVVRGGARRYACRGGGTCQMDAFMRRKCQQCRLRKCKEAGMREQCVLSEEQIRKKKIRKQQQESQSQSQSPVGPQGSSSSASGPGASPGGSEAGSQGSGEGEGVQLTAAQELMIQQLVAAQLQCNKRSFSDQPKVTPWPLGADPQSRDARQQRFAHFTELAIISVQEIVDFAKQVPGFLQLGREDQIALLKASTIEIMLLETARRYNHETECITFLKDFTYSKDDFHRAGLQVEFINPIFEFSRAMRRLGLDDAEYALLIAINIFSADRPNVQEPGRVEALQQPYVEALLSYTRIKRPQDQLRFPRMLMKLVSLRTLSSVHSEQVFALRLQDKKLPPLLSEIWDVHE

Genome polyprotein = Genome polyprotein (dengue virus type 2, UniProt P29990); assay: flavivirus cap methylation enzyme inhibition – biochemical, confirmation dose response, primary screen (AID 588689); format: functional
Caspase-6 = molecular target: T6, Caspase-6 (Homo sapiens, UniProt P55212); assay: inhibition of CASP6 peptide cleavage – biochemical, VEID-R110 fluorescence, cherry-pick, dose response (AID 720632)
T6 sequence (P55212 whole entry): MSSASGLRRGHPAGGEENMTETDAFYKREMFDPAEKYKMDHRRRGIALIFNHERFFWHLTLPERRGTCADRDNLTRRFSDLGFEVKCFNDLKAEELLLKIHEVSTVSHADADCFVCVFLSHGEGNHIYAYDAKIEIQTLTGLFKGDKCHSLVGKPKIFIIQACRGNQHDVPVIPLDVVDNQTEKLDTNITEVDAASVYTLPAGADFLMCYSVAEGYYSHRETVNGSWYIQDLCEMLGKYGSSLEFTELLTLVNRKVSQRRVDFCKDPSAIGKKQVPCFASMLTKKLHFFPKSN

Paired box protein Pax-8 = Paired box protein Pax-8 (Homo sapiens, UniProt Q06710); assay: PAX8 transcriptional activity inhibition in RMG-I – RMG-I cells, luciferase, cherry-pick, dose response (AID 687027); format: functional, cell-based;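 further: luciferase reporter driven by Pax8 target thyroperoxidase promoter measured by SteadyGlo luminescence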
[13] = reduced cellular PGC1a acetyl-lysine signal – cell-based, cherry-picked samples, dose response (AID 720514); format: functional;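 further: potency may reflect raised or lowered acetylation signal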
[14] = OVCAR-3 cell viability loss – plate reader, dry powder samples, PAX8 inhibitor project, dose response (AID 743044); format: functional, cell-based
[15] = OVCAR8 cell viability loss – plate reader, dry powder samples, PAX8 project, dose response (AID 743197); format: functional, cell-based; details: OVCAR-8
[16] = A549 cell cytotoxicity, dose response, cytotoxicity control, plate reader, cherry-pick, antagonist series (AID 743412); format: functional, cell-based
[17] = toxicity toward HepG2 liver cells – cell-based, plate reader, cherry-pick, antagonist series, cytotoxicity control, dose response (AID 743416); format: functional
[18] = IGROV1 cell killing – plate reader, dry powder samples, PAX8 inhibitor project, dose response (AID 743043); format: functional, cell-based; details: IGROV-1
[19] = general cell-killing toxicity readout – plate reader, dry powder samples, cytotoxicity control for PAX8 inhibitor project, dose response (AID 743021); format: functional, cell-based
[20] = blockade of melanocortin 4 receptor signaling – cell-based, plate reader, cherry pick, counter-screen for LGR2 antagonist project, dose response (AID 743444); format: functional;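 further: transfected HEK 293 cells stimulated with alpha-MSH peptide; potency of inhibitors of the alpha-MSH evoked signal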
[21] = viability loss in HEK293 cells – cell-based, plate reader, cherry-picked samples, cytotoxicity control, dose response (AID 743446); format: functional

Chain of Paired box protein Pax-8 (Q06710 whole entry): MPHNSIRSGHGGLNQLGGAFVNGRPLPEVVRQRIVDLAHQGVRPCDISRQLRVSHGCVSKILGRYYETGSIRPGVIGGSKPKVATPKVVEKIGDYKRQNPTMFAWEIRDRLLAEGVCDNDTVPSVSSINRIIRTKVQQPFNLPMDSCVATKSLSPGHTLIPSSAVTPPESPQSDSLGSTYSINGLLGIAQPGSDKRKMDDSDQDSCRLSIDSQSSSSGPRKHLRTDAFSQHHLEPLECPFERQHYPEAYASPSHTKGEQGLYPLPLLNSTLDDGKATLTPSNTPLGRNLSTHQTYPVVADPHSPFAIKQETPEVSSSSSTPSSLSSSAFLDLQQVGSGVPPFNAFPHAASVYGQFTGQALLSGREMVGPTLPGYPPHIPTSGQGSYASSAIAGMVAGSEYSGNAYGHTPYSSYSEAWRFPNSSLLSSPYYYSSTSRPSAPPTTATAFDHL
Chain of Genome polyprotein (P29990 2492-3391 limits assumed): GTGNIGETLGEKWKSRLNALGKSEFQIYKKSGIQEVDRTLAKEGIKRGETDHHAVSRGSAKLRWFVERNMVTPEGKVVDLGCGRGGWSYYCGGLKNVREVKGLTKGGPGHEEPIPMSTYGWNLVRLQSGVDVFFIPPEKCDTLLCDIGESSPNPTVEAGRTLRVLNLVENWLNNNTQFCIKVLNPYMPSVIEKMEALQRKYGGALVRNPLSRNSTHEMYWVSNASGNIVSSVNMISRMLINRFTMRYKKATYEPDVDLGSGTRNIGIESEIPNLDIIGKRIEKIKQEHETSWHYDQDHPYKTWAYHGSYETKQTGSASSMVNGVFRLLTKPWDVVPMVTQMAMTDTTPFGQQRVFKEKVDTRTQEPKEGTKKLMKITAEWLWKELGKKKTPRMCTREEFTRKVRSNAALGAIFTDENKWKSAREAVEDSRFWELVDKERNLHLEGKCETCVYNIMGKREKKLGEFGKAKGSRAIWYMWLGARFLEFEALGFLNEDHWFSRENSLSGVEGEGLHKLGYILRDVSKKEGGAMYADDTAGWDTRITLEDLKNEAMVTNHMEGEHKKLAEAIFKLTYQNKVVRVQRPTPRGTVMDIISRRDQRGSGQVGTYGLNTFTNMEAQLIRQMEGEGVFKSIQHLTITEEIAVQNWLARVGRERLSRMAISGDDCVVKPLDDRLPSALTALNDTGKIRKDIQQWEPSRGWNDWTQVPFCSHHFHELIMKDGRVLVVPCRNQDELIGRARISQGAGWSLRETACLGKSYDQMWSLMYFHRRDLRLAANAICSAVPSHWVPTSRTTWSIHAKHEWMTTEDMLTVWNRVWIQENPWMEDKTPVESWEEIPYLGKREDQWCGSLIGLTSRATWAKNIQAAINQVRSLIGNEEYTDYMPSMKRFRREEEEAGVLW
Chain of Voltage-dependent T-type calcium channel subunit alpha-1H (O95180 whole entry): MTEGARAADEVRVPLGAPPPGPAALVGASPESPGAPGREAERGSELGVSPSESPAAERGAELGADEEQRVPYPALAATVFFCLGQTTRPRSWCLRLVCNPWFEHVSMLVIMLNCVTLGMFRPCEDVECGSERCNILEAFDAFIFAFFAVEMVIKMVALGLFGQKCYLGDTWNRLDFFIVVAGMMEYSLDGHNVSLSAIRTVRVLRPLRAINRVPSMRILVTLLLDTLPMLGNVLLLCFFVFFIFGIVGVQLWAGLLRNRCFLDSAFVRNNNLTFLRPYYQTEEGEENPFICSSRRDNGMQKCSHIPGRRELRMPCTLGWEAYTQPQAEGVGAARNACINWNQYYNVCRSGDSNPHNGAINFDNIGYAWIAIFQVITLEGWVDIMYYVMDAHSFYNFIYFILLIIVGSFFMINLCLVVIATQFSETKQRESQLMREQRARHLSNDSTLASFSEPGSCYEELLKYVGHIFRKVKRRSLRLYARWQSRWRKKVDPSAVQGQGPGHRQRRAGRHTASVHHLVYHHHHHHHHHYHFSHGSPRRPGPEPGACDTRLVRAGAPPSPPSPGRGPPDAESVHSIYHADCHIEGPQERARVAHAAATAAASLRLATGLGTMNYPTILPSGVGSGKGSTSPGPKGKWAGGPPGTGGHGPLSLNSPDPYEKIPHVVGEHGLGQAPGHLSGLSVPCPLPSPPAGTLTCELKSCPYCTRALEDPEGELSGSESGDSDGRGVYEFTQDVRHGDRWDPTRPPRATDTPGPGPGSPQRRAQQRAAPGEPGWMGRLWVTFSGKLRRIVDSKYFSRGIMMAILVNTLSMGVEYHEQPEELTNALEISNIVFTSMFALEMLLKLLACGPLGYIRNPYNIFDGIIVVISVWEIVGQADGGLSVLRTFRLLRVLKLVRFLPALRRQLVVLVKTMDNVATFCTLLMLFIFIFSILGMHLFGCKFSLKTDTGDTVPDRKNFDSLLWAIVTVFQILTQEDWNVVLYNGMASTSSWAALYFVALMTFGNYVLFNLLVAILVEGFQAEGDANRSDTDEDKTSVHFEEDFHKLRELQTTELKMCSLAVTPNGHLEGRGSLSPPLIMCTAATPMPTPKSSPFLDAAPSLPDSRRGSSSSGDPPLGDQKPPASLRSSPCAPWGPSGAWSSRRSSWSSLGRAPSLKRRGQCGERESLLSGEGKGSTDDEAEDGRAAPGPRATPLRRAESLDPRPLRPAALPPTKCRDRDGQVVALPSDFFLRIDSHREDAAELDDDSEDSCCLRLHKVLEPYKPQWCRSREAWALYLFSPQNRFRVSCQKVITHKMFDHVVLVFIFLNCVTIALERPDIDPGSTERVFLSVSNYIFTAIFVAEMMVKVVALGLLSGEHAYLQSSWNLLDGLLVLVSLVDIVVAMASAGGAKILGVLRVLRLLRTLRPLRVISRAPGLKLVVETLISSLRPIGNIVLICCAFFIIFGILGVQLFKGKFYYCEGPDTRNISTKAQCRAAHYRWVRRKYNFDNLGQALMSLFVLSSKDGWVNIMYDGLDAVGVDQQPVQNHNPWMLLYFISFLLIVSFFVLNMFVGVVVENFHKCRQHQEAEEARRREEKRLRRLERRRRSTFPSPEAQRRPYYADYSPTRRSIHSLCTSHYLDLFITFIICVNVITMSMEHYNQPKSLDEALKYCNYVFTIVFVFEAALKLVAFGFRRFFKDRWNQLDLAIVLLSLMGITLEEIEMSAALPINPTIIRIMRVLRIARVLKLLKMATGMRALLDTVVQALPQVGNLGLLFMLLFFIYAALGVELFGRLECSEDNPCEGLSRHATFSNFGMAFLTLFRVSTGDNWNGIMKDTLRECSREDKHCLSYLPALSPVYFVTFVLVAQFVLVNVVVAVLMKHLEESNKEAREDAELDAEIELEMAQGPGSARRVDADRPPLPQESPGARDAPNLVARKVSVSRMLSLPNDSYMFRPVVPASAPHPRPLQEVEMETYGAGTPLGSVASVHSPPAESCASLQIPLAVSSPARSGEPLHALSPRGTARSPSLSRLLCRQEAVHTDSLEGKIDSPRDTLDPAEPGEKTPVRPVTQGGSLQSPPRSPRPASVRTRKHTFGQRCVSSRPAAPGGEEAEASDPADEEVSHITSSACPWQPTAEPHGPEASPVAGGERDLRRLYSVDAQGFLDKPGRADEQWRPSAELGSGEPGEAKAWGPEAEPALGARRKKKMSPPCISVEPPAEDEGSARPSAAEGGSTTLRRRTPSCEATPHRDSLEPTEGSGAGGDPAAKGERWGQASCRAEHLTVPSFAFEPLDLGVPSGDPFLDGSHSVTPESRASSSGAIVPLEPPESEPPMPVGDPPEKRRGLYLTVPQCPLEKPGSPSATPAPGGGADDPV

For `Cc1ccc(NC(=O)COC(=O)CC2CCCC2)cc1Cl`, the IC50 [1] was > 100 µM (active).
With `Cc1cc(SCCC(=O)O)nc2c(C)cccc12` the IC50 (Major prion protein) was 4.67 µM (active) and the IC50 (cells [2]) was > 138 µM (inactive).
With `Cc1ccc(-c2nc(CS(=O)(=O)CC(=O)N3CCc4ccccc4C3)c(C)o2)cc1` the EC50 [3] was 2.21 µM (active), the IC50 (Coagulation factor XII) was > 50 µM (inactive) and the IC50 (cells [4]) was > 29.9 µM (inactive). The EC50 [5] was 2.23 µM (active), the IC50 [6] was 5.4 µM (active) and the EC50 (cells [7]) was > 29.9 µM (inactive).
With `CCCCn1c(N)c(C(=O)NCc2cccs2)c2nc3ccccc3nc21` the EC50 [8] was 2.83 µM (active), the EC50 [9] was > 60 µM (not active) and the IC50 [10] was > 50 µM (not active). For the same compound, the EC50 (Protein RecA) was 47.4 µM (inconclusive).
In the case of `Cc1ccc(Cc2cnc(NC(=O)C3CCCO3)s2)cc1` (stereo not given), the IC50 [1] is reported as > 100 µM (active).
In the case of `CC(=O)Nc1cccc(OCc2ccc(F)cc2)c1`, the IC50 [1] is reported as > 100 µM (active).
In the case of `Cc1ccc(NC(=O)Nc2cccc(C(F)(F)F)c2)nc1`, the IC50 [11] is reported as > 67.6 µM (inactive) and the EC50 [12] is reported as > 67.6 µM (inactive).
For `COC(=O)c1c(C)oc2c1cc(NS(=O)(=O)c1ccc(C(=O)O)cc1)c1ccccc12`, the IC50 (Genome polyprotein) was 69 µM (active) and the AC50 (Caspase-6) was 22.6 µM (active).
In the case of `Cc1ccc(NC(=O)c2ccccn2)c(Br)c1`, the IC50 [11] is reported as > 67.5 µM (inactive) and the EC50 [12] is reported as > 67.5 µM (inactive).
In the case of `CN(CC(=O)Nc1cccc(F)c1)C(=O)c1cccc(S(=O)(=O)N2CCN(Cc3ccccc3)CC2)c1`, the IC50 [11] is reported as > 67.5 µM (inactive) and the EC50 [12] is reported as > 67.5 µM (inactive).
In the case of `Cc1ccc(S(=O)(=O)N(C)C[C@H]2Oc3cc(C#Cc4ccncc4)ccc3S(=O)(=O)N([C@H](C)CO)C[C@H]2C)cc1`, the AC50 (Paired box protein Pax-8) is reported as 4.03 µM (active), the AC50 [13] is reported as 4.27 µM (active) and the AC50 [14] is reported as 9.03 µM (active). For the same compound, the AC50 [15] was 17.4 µM (active).
With `C[C@@H]1CCCCO[C@H](CN(C)CC2CCCCC2)[C@H](C)CN([C@H](C)CO)C(=O)c2cc(NS(=O)(=O)c3ccccc3)ccc2O1` the AC50 (Paired box protein Pax-8) was 20.1 µM (active), the AC50 [14] was 55 µM (active) and the AC50 [16] was 17.1 µM (active). For the same compound, the AC50 [17] was 27.6 µM (active), the AC50 [18] was 57.1 µM (active) and the AC50 [19] was 39.7 µM (active). The AC50 [20] was 42.6 µM (active), the AC50 [15] was > 70 µM (inactive) and the AC50 [21] was 30.8 µM (active).
In the case of `COc1ccc(-c2ccc([C@@H]3[C@@H]4CN(C(=O)Nc5cccc(F)c5)C[C@H]3N4)cc2)cc1`, the AC50 (Paired box protein Pax-8) is reported as 5.09 µM (active), the AC50 [14] is reported as 18.9 µM (active) and the AC50 [18] is reported as 28.4 µM (active). For the same compound, the AC50 [19] was 41 µM (active) and the AC50 [15] was 58.5 µM (active).
For `COC(=O)C1=C(C)N(Cc2cccc(C(F)(F)F)c2)C(NCc2ccc(OC)cc2)=NC1c1cccc(F)c1` (stereo not given), the AC50 (Paired box protein Pax-8) was 11.5 µM (active) and the AC50 [19] was 33.3 µM (active).
With `CC(C)C#Cc1ccc2c(c1)O[C@@H](CN(C)Cc1ccccc1)[C@@H](C)CN([C@@H](C)CO)S2(=O)=O` the AC50 [13] was 16 µM (active).
For `COCc1ccc(CN2CCC(n3nccc3NC(=O)c3ccc4c(c3)OCO4)CC2)o1`, the AC50 [13] was 29.9 µM (active).
